Source: patent publication US10118903B2, “Aminotriazole-based KDM1A inhibitors as epigenetic modulators” (MUSC FOUNDATION FOR RESEARCH DEVELOPMENT, priority 2014, dated 2018)
Entries after “also recorded” stand apart in the source; their conditions may differ.

Columns and labels:
[1] = test system: H3K4me2 levels in Calu 6 human anaplastic lung tumor cell line; test: H3K4 methylation in tumor cells by Western blot; assay type: cell-based; conditions: Calu 6 cells
Method: To verify that C1 and C15 have epigenetic effects in tumor cells, changes in H3K4 methylation in the Calu 6 human anaplastic lung tumor cell line were monitored, as shown in FIG. 4.
Following treatment, cells were washed twice in sterile filtered cold 1×PBS. Cells were then lysed in 200 μL of lysis buffer (20 mM Tris, 150 mM NaCl, 1 mM EDTA, 1 mM EGTA, 1 mM β-glycerol, 2.5 mM sodium pyrophosphate, and 1% Triton X-100) Protease and phosphatase inhibitors were added to these buffers (1:100 dilutions of phosphatase inhibitor cocktail I and II and protease inhibitor cocktail; Sigma). The cells were then incubated on ice for 15 min, and insoluble material was pelleted by centrifugation at 4° C.
Protein concentrations were determined by Pierce BCA protein assay kit (Thermo Sci, Product #23225). Cell lysates were subjected to SDS-PAGE, and Western blot analysis was performed with the appropriate antibodies. Primary antibodies against H3K4me2, H3K4me1, and LSD1 were from Cell Signaling; Histone H3 primary antibody was from Millipore. Proteins were visualized by enhanced chemiluminescence (ECL).

mouse heart = test: Langendorff isolated heart model, ischemia/reperfusion; conditions: versus vehicle
Description: (§1) In the Langendorff preparation, the heart is removed with preservation of a portion of the afferent and efferent blood vessels; it is then perfused in a reverse fashion via the aorta, usually with a nutrient rich, oxygenated solution (e.g. Krebs-Henseleit solution or Tyrode's solution). The backwards pressure causes the aortic valve to shut, forcing the solution into the coronary vessels, which normally supply the heart tissue with blood. This feeds nutrients and oxygen to the cardiac muscle, allowing it to continue beating for several hours after its removal from the animal. This is a useful preparation because it allows the addition of drugs (via the perfusate) and observation of their effect on the heart without the complications involved with in vivo experimentation, such as neuronal and hormonal effects from living animal (Broadley, K. J., 1970). A pressure transducer is inserted to measure a number of cardiac performance parameters including left ventricular developed pressure, left ventricular end diastolic pressure, heart rate, etc. Following the Langendorff procedure, the myocardium is cut into cross sections, and infarcted tissue is identified by the inability to take up stain; thus infarcted areas appear white, while healthy areas appear red.
The compounds described herein may be used to protect the myocardium from injury following an ischemic event. In FIG. 6, a mouse heart was subjected to ischemia by ligation of the afferent vessel in a Langendorff preparation, as described above. Prior to the induction of ischemia, hearts were either pre-treated with vehicle, verlindamycin or C1. […] In FIG. 8, the results of an experiment to measure infarcted tissue in a myocardial cross-section are shown. Results are expressed as a percentage of the area of infarct with respect to total surface area. […] The HDAC1/CoREST/LSD1 complex was pulled down with an LSD1 antibody and a Western blot for CoREST was performed.

murine myocardium = test: Infarct area in myocardial cross-section after induced myocardial ischemia; assay type: in vivo, mouse; conditions: 10 mg/kg; versus vehicle
Description: as §1, with “Following the Langendorff procedure, the myocardium is cut into cross sections, and infarcted tissue is identified by the inability to take up stain; thus infarcted areas appear white, while healthy areas appear red.” left out
The compounds described herein may be used to protect the myocardium from injury following an ischemic event. […] Results are expressed as a percentage of the area of infarct with respect to total surface area. […]

[2] = test system: HDAC1/CoREST/LSD1 complex; test: Pull-down of HDAC1/CoREST/LSD1 complex with HDAC1 antibody, Western blot for CoREST; assay type: cell-based; conditions: primary feline cardiomyocytes, 3 h, 5 μM
Description: Co-immunoprecipitation (pull down) of intact protein complexes works by selecting an antibody that targets a known protein that is believed to be a member of a larger complex of proteins. By targeting this known member with an antibody it may become possible to pull the entire protein complex out of solution and thereby identify unknown members of the complex. This works when the proteins involved in the complex bind to each other tightly, making it possible to pull multiple members of the complex out of solution by latching onto one member with an antibody. This concept of pulling protein complexes out of solution is sometimes referred to as a “pull-down”. Co-immunoprecipitation is a powerful technique that is used regularly by molecular biologists to analyze protein-protein interactions. The co-repressor HDAC:CoREST:LSD1 complex was initially pulled down with an antibody for HDAC1 and a Western blot for CoREST was performed.

LSD1:CoREST complex = test: Pull-down of HDAC1/CoREST/LSD1 complex with LSD1 antibody, Western blot for CoREST; assay type: cell-based; conditions: primary feline cardiomyocytes, 3 h, 1 μM; LSD1 antibody pull-down
Method: Co-immunoprecipitation analysis for LSD1:CoREST complex following treatment from primary rat cardiomyocytes with 5 μM and 1 μM C1 was performed as described above. Lysates pulled down with LSD1 antibody and western blotted for CoREST (n=2).

[3] = target: human recombinant spermine oxidase (Homo sapiens, UniProt Q9NWM0); test: Inhibition of spermine oxidase; assay type: biochemical
Method: The assay procedure is very similar to the assay used for LSD1, except that the reaction is conducted by human recombinant spermine oxidase. the assay for C1 and related analogues was conducted as previously described (Goodwin et al., 2011).

human recombinant LSD1 = target: T1, human recombinant LSD1 (Homo sapiens, UniProt O60341); test: LSD1 inhibitor screening assay (Cayman Chemical kit, fluorometric); assay type: biochemical; conditions: 10 μM compound; Chembridge analogues table
T1 construct: purchased Cayman Chemical Item #700120
Method: LSD1 Inhibitor Screening Assay:
(§2) In short, 10 μM of compound was combined with the fluorometic substrate 10-acetyl-3,7-dihydroxyphenoxazine, horseradish peroxidase, human recombinant LSD1, and 100 μM dimethylated lysine at residue 4 [ARTK(diMe)[…]] (Seq. ID No: 1) for 30 mins at 37° C. Plates were read using an excitation wavelength of 535 nm and an emission wavelength of 590 nm with a SpectraMax M5 Microplate reader.

[4] = target: recombinant human LSD1/CoREST (Homo sapiens, UniProt O60341); test: IC50 determination by dose-response curve against recombinant LSD1/CoREST; assay type: biochemical
Method: Using a dose-response curve, the IC50 of C1 and C15 were calculated.
as §2

Chain of human recombinant spermine oxidase (Q9NWM0 whole entry): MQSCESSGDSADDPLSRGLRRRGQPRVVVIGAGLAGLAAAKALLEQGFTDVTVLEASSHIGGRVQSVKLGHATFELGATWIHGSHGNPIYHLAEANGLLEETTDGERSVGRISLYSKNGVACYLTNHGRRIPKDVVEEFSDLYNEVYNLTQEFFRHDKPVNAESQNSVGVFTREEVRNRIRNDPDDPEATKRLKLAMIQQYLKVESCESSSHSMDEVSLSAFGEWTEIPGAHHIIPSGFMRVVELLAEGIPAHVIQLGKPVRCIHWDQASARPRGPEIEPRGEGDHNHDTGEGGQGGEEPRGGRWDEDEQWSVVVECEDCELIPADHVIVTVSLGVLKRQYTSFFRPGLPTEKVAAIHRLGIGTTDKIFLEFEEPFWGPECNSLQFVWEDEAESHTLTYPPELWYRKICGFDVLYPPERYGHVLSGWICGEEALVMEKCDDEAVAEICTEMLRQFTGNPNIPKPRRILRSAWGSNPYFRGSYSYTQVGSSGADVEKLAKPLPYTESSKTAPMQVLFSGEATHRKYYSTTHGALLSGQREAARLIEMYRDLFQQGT

Row | mode of inhibition of spermine oxidase [3] | IC50 ([3]; assayed between 0.1 and 1.0 μM, read-out: IC50 against spermine oxidase (SMOX)) | inhibition at 10 µM (human recombinant LSD1) | IC50 [4] | Compound | effect on H3K4 methylation ([1]; 24 or 48 hours) | left ventricular end diastolic pressure (mouse heart; 1 hour pre-treatment with 1.0 μM) | left ventricular developed pressure (mouse heart; pre-treatment before ischemia, after reperfusion) | infarct area as a percentage of the total left ventricular area (murine myocardium) | association of HDAC1 and CoREST [2] | association between LSD1 and CoREST (LSD1:CoREST complex) | inhibition of spermine oxidase compared with verlindamycin ([3]; assayed between 0.1 and 1.0 μM) | H3K4me2 levels ([1]; 72 hours)
1 | competitive inhibitor | 0.04 µM |  |  | Nc1nnc(NCc2c(Cl)cccc2Oc2ccccc2)[nH]1 [Compound C1, N^3-(2-chloro-6-phenoxybenzyl)-4H-1,2,4-triazole-3,5-diamine] | did not appear to have a significant effect | reduced to near-normal levels | restored to nearly normal levels | most effective in limiting the spread of infarct; also recorded: significantly more effective than treatment with vehicle | disrupted the association of HDAC1 and CoREST | disrupted the association between LSD1 and CoREST | improved inhibition of spermine oxidase over verlindamycin | 
2 |  |  | 74.9 ± 1.9% | 2.2 µM | COc1ccccc1CNc1n[nH]c(NCc2ccccc2OC)n1 [Compound C15, N^3,N^5-bis(2-methoxybenzyl)-1H-1,2,4-triazole-3,5-diamine] |  |  |  |  | disrupted the association of HDAC1 and CoREST |  | improved inhibition of spermine oxidase over verlindamycin | significant, dose-dependent increase
